Assay results taken from US20250228891A1, “COMBINATIONS CONTAINING OXYLANTHANUM CARBONATE FOR TREATING HYPERPHOSPHATEMIA” (UNICYCIVE THERAPEUTICS, INC., priority 2024, published 2025).

Tests used:
[1] = Body weight and food intake in the OLC+Tenapanor Combo Study (Example 1); details: rat, in vivo
Description: FIG. 1. Represents the Study Design of the OLC+Tenapanor Combo Study described in Example 1. The study consisted of acclimatization, randomization, in vivo study period, and termination. Animals were acclimated from Day-7 to Day-4. On study Day-1, animals were randomized into eight groups: one vehicle; one tenapanor (0.15 mg/kg); three oxylanthanum carbonate (OLC) (0.75%, 1.5%, and 3%); and three combination treatment with OLC and tenapanor (OLC 0.75%, 1.5%, and 3%+tenapanor 0.15 mg/kg). On study Day 1, animals were switched to high phosphorus diets. Animals were euthanized on Day 11 two hours post last dose. Legend: 1 Body weight and food intake were measured daily from study Day-3 until termination. 2 During the in vivo study period (Days 1 to 11), vehicle and tenapanor were dosed orally twice/day whereas OLC was incorporated into the diets. 3 Urine samples were collected on Days 9, 10, and 11 for phosphate measurements and blood samples were collected for serum phosphate and sodium measurements on day 11 after the final urine sampling. Sixty-four male Sprague Dawley rats of 9 weeks old (11 weeks by the end of the study) were fed standard chow one week prior to study start. […] Body weight and food intake were measured daily from study Day-3 until termination. […] The mean body weight (FIG. 2A) and food intake (FIG. 2B) were measured from Day 1 to 11.

[2] = clinical trials; % of patients; cited from earlier work
[3] = system: Sprague Dawley rats; test: Urinary phosphate excretion in rats fed a high phosphorus diet (OLC+Tenapanor Combo Study, Example 1); assay type: in vivo, rat; details: Days 9 to 11
Description: FIG. 1. Represents the Study Design of the OLC+Tenapanor Combo Study described in Example 1. The study consisted of acclimatization, randomization, in vivo study period, and termination. Animals were acclimated from Day-7 to Day-4. On study Day-1, animals were randomized into eight groups: one vehicle; one tenapanor (0.15 mg/kg); three oxylanthanum carbonate (OLC) (0.75%, 1.5%, and 3%); and three combination treatment with OLC and tenapanor (OLC 0.75%, 1.5%, and 3%+tenapanor 0.15 mg/kg). On study Day 1, animals were switched to high phosphorus diets. Animals were euthanized on Day 11 two hours post last dose. Legend: 1 Body weight and food intake were measured daily from study Day-3 until termination. 2 During the in vivo study period (Days 1 to 11), vehicle and tenapanor were dosed orally twice/day whereas OLC was incorporated into the diets. 3 Urine samples were collected on Days 9, 10, and 11 for phosphate measurements and blood samples were collected for serum phosphate and sodium measurements on day 11 after the final urine sampling. Sixty-four male Sprague Dawley rats of 9 weeks old (11 weeks by the end of the study) were fed standard chow one week prior to study start. On study day-1, animals were randomized into 8 study groups (n=8): 1) vehicle, 2) tenapanor 0.15 mg/kg, 3) Vehicle+OLC 0.75%, 4) Vehicle+OLC 1.5%, 5) Vehicle+OLC 3%, 6) tenapanor 0.15 mg/kg+OLC 0.75%, 7) tenapanor 0.15 mg/kg+OLC 1.5%, and 8) tenapanor 0.15 mg/kg+OLC 3%. Vehicle and tenapanor were dosed PO twice/day whereas OLC was incorporated into the diets. On study Day 1, all animals were switched to high phosphorus diets consisting of chow spiked with 0.4% inorganic phosphorus [(1:1 sodium:potassium salt-wt./wt.), 1.1% total phosphorus content] for the rest of the study. Body weight and food intake were measured daily from study Day-3 until termination. 24-hour urine samples were collected using metabolic cages on day 9, 10, and 11 for urinary P measurements. Mean urinary phosphate excretion for each animal from Days 9 to 11 were averaged by treatment group. While we examined effects separately in each OLC dose group, our primary analyses compared pooled results in the three OLC dose groups combined. We compared pooled results using one-way ANOVA followed by Games-Howell test, and individual groups with vehicle using one-way ANOVA followed by Dunnett's multiple comparison test. A threshold of p<0.05 was used to determine significant differences between groups. Statistical Package for the Social Sciences (SPSS) was used for all statistical analyses. The Bliss model of independence was employed to determine if the combination of OLC and tenapanor was independent, synergistic, or antagonistic. (Zhao W, et al. J Biomol Screen June 2014; 19 (5): 817-821). The Bliss model compares the predicted combination response, calculated using the complete additivity of probability theory based on the observed effect of each individual agent administered alone, with the observed effect of combination treatment. The mean percentage reduction in urinary phosphate excretion relative to vehicle by treatment group was calculated by averaging urinary phosphate excretion for each animal from Days 9 to 11. Paired t-tests were conducted to assess the statistical significance between observed and predicted results. 2-tailed p-values<0.05 are considered to be statistically significant.

[4] = Games-Howell post-hoc, OLC = average of 0.75%, 1.5%, 3% in chow, tenapanor 0.15 mg/kg/po/bid

CN1Cc2c(Cl)cc(Cl)cc2[C@H](c2cccc(S(=O)(=O)NCCOCCOCCNC(=O)NCCCCNC(=O)NCCOCCOCCNS(=O)(=O)c3cccc([C@@H]4CN(C)Cc5c(Cl)cc(Cl)cc54)c3)c2)C1.Cl.Cl [Tenapanor, 12,15-Dioxa-2,7,9-triazaheptadecanamide, 17-[[[3-[(4S)-6,8-dichloro-1,2,3,4-tetrahydro-2-methyl-4-isoquinolinyl]phenyl]sulphonyl]amino]-N-[2-[2-[2-[[[3-[(4S)-6,8-dichloro-1,2,3,4-tetrahydro-2-methyl-4-isoquinolinyl]phenyl]sulphonyl]amino]ethoxy]ethoxy]ethyl]-8-oxo-, hydrochloride (1:2)]
food intake compared with vehicle [1]: not significantly affected | diarrhea observed in patients taking tenapanor [2]: 53% | mean urinary phosphate excretion lower compared to the vehicle group ([3]; tenapanor 0.15 mg/kg PO bid, OLC pooled across 0.75, 1.5 and 3% in chow, n=8 per treatment group): 8.5 mg/day | Mean Difference (A − B) in mean urinary phosphate excretion, Treatment Group (A) = Vehicle, (B) = labelled treatment [3, 4]: 8.510 mg/day | Mean Difference (A − B) in mean urinary phosphate excretion, Treatment Group (A) = labelled treatment, (B) = OLC [3, 4]: 3.583 mg/day | Mean Difference (A − B) in mean urinary phosphate excretion, Treatment Group (A) = labelled treatment, (B) = OLC + Tenapanor [3, 4]: 19.543 mg/day | Mean Difference (A − B) in mean urinary phosphate excretion, Treatment Group (A) = labelled treatment, (B) = Vehicle [3, 4]: -8.510 mg/day
